The text below walks through data of patent publication US20250221988A1 (Cullgen (Shanghai), Inc., priority 2022, published 2025).

In one assay the test system is MOLM-13 cells. Description: Cell viability assay (CellTiter-Glo) in MOLM-13 cells. Type of assay: cell-based. In general terms: Cellular ATP, detected with luciferase, serves as a proxy for viable cell number.
The subject of a further assay is MV4;11 cells. Description: Cell viability assay (CellTiter-Glo) in MV4;11 cells. Type of assay: cell-based. The settings on record: read-out: MV4. The essentials: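 After three days' exposure to 3-fold serial compound dilutions (8 or 12 points), viability of cells seeded at 5000/well is read by CellTiter-Glo. Runs were done alone or combined with gilteritinib at 10 nM (MV4;11) or 20 nM (MOLM-13); IC50 from nonlinear regression.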

[1] abbreviates: Homo sapiens, 72 h, MOLM-13 cells, compound alone, three days, read-out: MOLM-13 IC50.
Setting [2] is: MOLM-13 cells, with gilteritinib, three days, read-out: MOLM-13 IC50 (nM) + 10 nM Gil.
Where [3] appears, read: Homo sapiens, MV4-11, 72 h, MV4;11 cells, compound alone, three days, 11 IC50.
[4] abbreviates: MV4;11 cells, with 10 nM gilteritinib, three days, 11 IC50 (nM) + 10 nM Gil.

Molecules are shown by their SMILES. Read-outs that look alike come from different tables or passages of the source. A value given as a limit tells only on which side of the number the result lay.

With `CN(C)c1ccccc1-c1cn([C@H]2C[C@H](CNc3ccc4c(c3)C(=O)N(C3CCC(=O)NC3=O)C4=O)C2)nc1C1CC1` (stereo partly drawn) [GS-650, 5-(((trans-3-(3-Cyclopropyl-4-(2-(dimethylamino)phenyl)-1H-pyrazol-1-yl)cyclobutyl)methyl)amino)-2-(2,6-dioxopiperidin-3-yl)isoindoline-1,3-dione], the IC50 fell in the range of 100 to 1000 nM in the assay on MOLM-13 cells (setting [1]), 10 to 100 nM in the assay with MOLM-13 cells (setting [2]), 10 to 100 nM with MV4;11 cells (setting [3]) and 10 to 100 nM with MV4;11 cells (setting [4]).

As to `O=C1CCC(N2C(=O)c3ccc(NC[C@H]4C[C@H](n5cc(-n6ccc7cccnc76)c(C6CC6)n5)C4)cc3C2=O)C(=O)N1` (stereo partly drawn) [GS-751, 5-(((Trans-3-(3-cyclopropyl-4-(1H-pyrrolo[2,3-b]pyridin-1-yl)-1H-pyrazol-1-yl)cyclobutyl)methyl)amino)-2-(2,6-dioxopiperidin-3-yl)isoindoline-1,3-dione], the IC50 in the assay on MOLM-13 cells (setting [1]) was 10 to 100 nM; with MOLM-13 cells (setting [2]) it was less than 10 nM; in the assay with MV4;11 cells (setting [3]), less than 10 nM; with MV4;11 cells (setting [4]) it was less than 10 nM.

On to `O=C1CCC(N2C(=O)c3ccc(NC[C@H]4C[C@H](n5cc(-c6ccc7c(n6)C(O)CC7)c(C6CC6)n5)C4)cc3C2=O)C(=O)N1` (stereo partly drawn) [GS-780, 5-(((Trans-3-(3-cyclopropyl-4-(7-hydroxy-6,7-dihydro-5H-cyclopenta[b]pyridin-2-yl)-1H-pyrazol-1-yl)cyclobutyl)methyl)amino)-2-(2,6-dioxopiperidin-3-yl)isoindoline-1,3-dione], for which the IC50 in the assay with MOLM-13 cells (setting [1]) is 10 to 100 nM; with MOLM-13 cells (setting [2]) it was less than 10 nM; with MV4;11 cells (setting [3]), 10 to 100 nM; in the assay on MV4;11 cells (setting [4]), less than 10 nM.

For `Cn1ccnc1-c1cn([C@H]2C[C@H](CNc3ccc4c(c3)C(=O)N(C3CCC(=O)NC3=O)C4=O)C2)nc1C1CC1` (stereo partly drawn) [GS-687, 5-(((Trans-3-(3-cyclopropyl-4-(1-methyl-1H-imidazol-2-yl)-1H-pyrazol-1-yl)cyclobutyl)methyl)amino)-2-(2,6-dioxopiperidin-3-yl)isoindoline-1,3-dione], the IC50 with MOLM-13 cells (setting [1]) was more than 1000 nM; in the assay with MOLM-13 cells (setting [2]), 100 to 1000 nM; in the assay with MV4;11 cells (setting [3]) it was more than 1000 nM; with MV4;11 cells (setting [4]), 100 to 1000 nM.

For `O=C1CCC(N2C(=O)c3ccc(NC[C@H]4C[C@H](n5cc(-c6ccccc6C6CCNCC6)c(C6CC6)n5)C4)cc3C2=O)C(=O)N1` (stereo partly drawn) [GS-654, 5-(((Trans-3-(3-cyclopropyl-4-(2-(piperidin-4-yl)phenyl)-1H-pyrazol-1-yl)cyclobutyl)methyl)amino)-2-(2,6-dioxopiperidin-3-yl)isoindoline-1,3-dione], the IC50 in the assay with MOLM-13 cells (setting [1]) was 100 to 1000 nM; in the assay on MOLM-13 cells (setting [2]) it was 100 to 1000 nM; in the assay on MV4;11 cells (setting [3]), more than 1000 nM; with MV4;11 cells (setting [4]) it was 10 to 100 nM.

Turning to `O=C1CCC(N2C(=O)c3ccc(NC[C@H]4C[C@H](n5cc(-c6cc7c(cn6)cnn7C6CNC6)c(C6CC6)n5)C4)cc3C2=O)C(=O)N1` (stereo partly drawn) [GS-675, 5-(((Trans-3-(4-(1-(azetidin-3-yl)-1H-pyrazolo[4,3-c]pyridin-6-yl)-3-cyclopropyl-1H-pyrazol-1-yl)cyclobutyl)methyl)amino)-2-(2,6-dioxopiperidin-3-yl)isoindoline-1,3-dione], the IC50 in the assay with MOLM-13 cells (setting [1]) was more than 1000 nM; in the assay with MOLM-13 cells (setting [2]) it was 100 to 1000 nM; in the assay on MV4;11 cells (setting [3]) it was more than 1000 nM; with MV4;11 cells (setting [4]), 100 to 1000 nM.

In the case of `CC(C)n1ncc2cnc(-c3cn([C@H]4C[C@H](CNc5ccc6c(c5)C(=O)N(C5CCC(=O)NC5=O)C6=O)C4)nc3C(F)F)cc21` (stereo partly drawn) [GS-656, 5-(((Trans-3-(3-(difluoromethyl)-4-(1-isopropyl-1H-pyrazolo[4,3-c]pyridin-6-yl)-1H-pyrazol-1-yl)cyclobutyl)methyl)amino)-2-(2,6-dioxopiperidin-3-yl)isoindoline-1,3-dione], the IC50 in the assay on MOLM-13 cells (setting [1]) is 100 to 1000 nM; in the assay on MOLM-13 cells (setting [2]), 10 to 100 nM; with MV4;11 cells (setting [3]) it was 10 to 100 nM; in the assay on MV4;11 cells (setting [4]) it was 10 to 100 nM.

With `CN1CCC(Nc2cn([C@H]3C[C@H](CNc4ccc5c(c4)C(=O)N(C4CCC(=O)NC4=O)C5=O)C3)nc2C2CC2)CC1` (stereo partly drawn) [GS-666, 5-(((Trans-3-(3-cyclopropyl-4-((1-methylpiperidin-4-yl)amino)-1H-pyrazol-1-yl)cyclobutyl)methyl)amino)-2-(2,6-dioxopiperidin-3-yl)isoindoline-1,3-dione], the IC50 in the assay on MOLM-13 cells (setting [1]) and in the assay with MV4;11 cells (setting [3]) was more than 1000 nM in each case.

In the case of `Cc1nc(-c2cn([C@H]3C[C@H](COc4ccc5c(c4)C(=O)N(C4CCC(=O)NC4=O)C5=O)C3)nc2C2CC2)ccc1F` (stereo partly drawn) [GS-715, 5-((Trans-3-(3-cyclopropyl-4-(5-fluoro-6-methylpyridin-2-yl)-1H-pyrazol-1-yl)cyclobutyl)methoxy)-2-(2,6-dioxopiperidin-3-yl)isoindoline-1,3-dione], the figures for the IC50 in the assay on MOLM-13 cells (setting [1]), with MV4;11 cells (setting [3]) and with MV4;11 cells (setting [4]) were more than 1000 nM, more than 1000 nM and 100 to 1000 nM, respectively.

Regarding `O=C1CCC(N2C(=O)c3ccc(NC[C@H]4C[C@H](n5cc(-c6ccc7cc[nH]c7n6)c(C6CC6)n5)C4)cc3C2=O)C(=O)N1` (stereo partly drawn) [GS-721, 5-(((Trans-3-(3-cyclopropyl-4-(1H-pyrrolo[2,3-b]pyridin-6-yl)-1H-pyrazol-1-yl)cyclobutyl)methyl)amino)-2-(2,6-dioxopiperidin-3-yl)isoindoline-1,3-dione], the IC50 in the assay with MOLM-13 cells (setting [1]) was 10 to 100 nM; in the assay on MOLM-13 cells (setting [2]), less than 10 nM; in the assay with MV4;11 cells (setting [3]), less than 10 nM; in the assay with MV4;11 cells (setting [4]), less than 10 nM.

With `O=C1CCC(N2C(=O)c3ccc(NC[C@H]4C[C@H](n5cc(-c6cnc7c(NC(CO)CO)cccc7n6)c(C6CC6)n5)C4)cc3C2=O)C(=O)N1` (stereo partly drawn) [GS-710, 5-(((Trans-3-(3-cyclopropyl-4-(5-((1,3-dihydroxypropan-2-yl)amino)quinoxalin-2-yl)-1H-pyrazol-1-yl)cyclobutyl)methyl)amino)-2-(2,6-dioxopiperidin-3-yl)isoindoline-1,3-dione], the IC50 with MOLM-13 cells (setting [1]) was 10 to 100 nM; with MOLM-13 cells (setting [2]), less than 10 nM; in the assay on MV4;11 cells (setting [3]), 10 to 100 nM; in the assay with MV4;11 cells (setting [4]), less than 10 nM.

Turning to `Cc1cc(F)cnc1-c1cn([C@H]2C[C@H](CNc3ccc4c(c3)C(=O)N(C3CCC(=O)NC3=O)C4=O)C2)nc1C(F)F` (stereo partly drawn) [GS-719, 5-(((Trans-3-(3-(Difluoromethyl)-4-(5-fluoro-3-methylpyridin-2-yl)-1H-pyrazol-1-yl)cyclobutyl)methyl)amino)-2-(2,6-dioxopiperidin-3-yl)isoindoline-1,3-dione], the IC50 in the assay on MOLM-13 cells (setting [1]) was 10 to 100 nM; with MOLM-13 cells (setting [2]), less than 10 nM; in the assay with MV4;11 cells (setting [3]), 10 to 100 nM; in the assay with MV4;11 cells (setting [4]), less than 10 nM.

As for `O=C1CCC(N2C(=O)c3ccc(NC[C@H]4C[C@H](n5cc(-c6cc7nn(C8CC(O)C8)cc7cn6)c(C6CC6)n5)C4)cc3C2=O)C(=O)N1` (stereo partly drawn) [GS-750, 5-(((Trans-3-(3-cyclopropyl-4-(2-(3-hydroxycyclobutyl)-2H-pyrazolo[4,3-c]pyridin-6-yl)-1H-pyrazol-1-yl)cyclobutyl)methyl)amino)-2-(2,6-dioxopiperidin-3-yl)isoindoline-1,3-dione], the IC50 in the assay with MOLM-13 cells (setting [1]), in the assay on MOLM-13 cells (setting [2]), with MV4;11 cells (setting [3]) and in the assay on MV4;11 cells (setting [4]) was less than 10 nM in each case. In addition, the “sensitization of AML cells to GSPT1 degraders by FLT3 inhibition” value with MOLM-13 cells (MOLM-13 cells, with or without 20 nM gilteritinib, 3 days) is “FLT3 inhibition sensitizes AML cells”.

`O=C1CCC(N2C(=O)c3ccc(NC[C@H]4C[C@H](n5nc(C6CC6)c6cncnc65)C4)cc3C2=O)C(=O)N1` (stereo partly drawn) [GS-663, 5-(((Trans-3-(3-cyclopropyl-1H-pyrazolo[3,4-d]pyrimidin-1-yl)cyclobutyl)methyl)amino)-2-(2,6-dioxopiperidin-3-yl)isoindoline-1,3-dione]: the IC50 in the assay on MOLM-13 cells (setting [1]) is more than 1000 nM; with MOLM-13 cells (setting [2]), 100 to 1000 nM; with MV4;11 cells (setting [3]), more than 1000 nM.

In the case of `O=C1CCC(N2C(=O)c3ccc(NC[C@H]4C[C@H](n5cc(Nc6ccncc6)c(C6CC6)n5)C4)cc3C2=O)C(=O)N1` (stereo partly drawn) [GS-671, 5-(((Trans-3-(3-cyclopropyl-4-(pyridin-4-ylamino)-1H-pyrazol-1-yl)cyclobutyl)methyl)amino)-2-(2,6-dioxopiperidin-3-y)isoindoline-1,3-dione], the IC50 in the assay with MOLM-13 cells (Homo sapiens, MOLM-13, 72 h, read-out: MOLM-13 IC50 (nM)) is more than 1000 nM; in the assay on MOLM-13 cells (read-out: MOLM-13 IC50 (nM) + 10 nM Gil, MOLM-13 cells, with gilteritinib, three days), 100 to 1000 nM; with MV4;11 cells (Homo sapiens, MV4-11, 72 h, 11 IC50 (nM)), more than 1000 nM.

`Cc1cccc2cn([C@H]3C[C@H](CNc4ccc5c(c4)C(=O)N(C4CCC(=O)NC4=O)C5=O)C3)nc12` (stereo partly drawn) [GS-694, 2-(2,6-Dioxopiperidin-3-yl)-5-(((trans-3-(7-methyl-2H-indazol-2-yl)cyclobutyl)methyl)amino)isoindoline-1,3-dione]: the IC50 was more than 1000 nM with MOLM-13 cells (setting [1]), 100 to 1000 nM with MOLM-13 cells (setting [2]), more than 1000 nM with MV4;11 cells (setting [3]) and 100 to 1000 nM in the assay on MV4;11 cells (setting [4]).

As to `O=C1CCC(N2C(=O)c3ccc(NC[C@H]4C[C@H](n5cc(-n6ncc7cccnc76)c(C6CC6)n5)C4)cc3C2=O)C(=O)N1` (stereo partly drawn) [GS-777, 5-(((Trans-3-(3-cyclopropyl-4-(1H-pyrazolo[3,4-b]pyridin-1-yl)-1H-pyrazol-1-yl)cyclobutyl)methyl)amino)-2-(2,6-dioxopiperidin-3-yl)isoindoline-1,3-dione], the IC50 was 10 to 100 nM with MOLM-13 cells (setting [1]), less than 10 nM in the assay with MOLM-13 cells (setting [2]), less than 10 nM in the assay with MV4;11 cells (setting [3]) and less than 10 nM with MV4;11 cells (setting [4]).

With `O=C1CCC(N2C(=O)c3ccc(NC[C@H]4C[C@H](n5cc(-c6cc7c(cn6)cnn7[C@H]6CC[C@@H](O)CC6)c(C6CC6)n5)C4)cc3C2=O)C(=O)N1` (some centres unmarked) [GS-782], the IC50 is 10 to 100 nM in the assay with MOLM-13 cells (setting [1]), less than 10 nM in the assay on MOLM-13 cells (setting [2]), less than 10 nM in the assay with MV4;11 cells (setting [3]) and less than 10 nM in the assay on MV4;11 cells (setting [4]).
